For test [1], the system named is interferon regulatory factor (IRF) pathway in THP1-Dual™ cells. The experiment in a line: THP1-Dual reporter gene assay (Agonist_THP1_EC50). Particulars: Homo sapiens, 20-24 hrs compound treatment, Lucia luciferase (IRF) readout. The test is classed as cell-based. The method in brief: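 Human THP-1 monocytes with Lucia luciferase under ISG54 minimal promoter plus five ISREs; ~33,000 cells/well with serially diluted compound, final 1% DMSO, 20-24 h at 37 °C. Supernatant Lucia luciferase read by QUANTI-Luc Gold luminescence; viability by CCK-8, A450 after 2 h.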
A general note: A reporter such as luciferase makes a cellular process visible.

Test [2] concerns human PBMC. The experiment in a line: hPBMC cytokine release assay (Luminex, IFN-β). To be noted: 24 hours incubation, IFN-β in supernatant, read-out: Agonist_hPBMC_IFN-β_EC50. It counts as cell-based. The method, then: This is the cytokines concentration detection with Luminex assay for human PBMC supernatant. Human peripheral blood mononuclear cells (PBMC) are treated by compounds with appropriate time. Multiple cytokines are released in the supernatant in response to the compound stimulation. Luminex assay can measure the cytokines concentration in supernatant and the compounds activity on human PBMC can be evaluated.
Frozen PBMC was thawed and cultured in PRMI1640 (GIBCO 11875-093) whole medium with […] Heat inactivated-FBS (HI—FBS), 1% NEAA, […] in CO2 incubator overnight. Cells were centrifuged at 400×g for 5 minutes at 4° C. and the pellet was re-suspended with complete RPMI1640 medium to concentration of 1×10^6 cells/ml in cell culture flask T75 (Thermo Fisher Scientific). Compounds were serially diluted with DMSO and distributed to 96-well flat bottom cell plate (Corning 3599) with Echo555. 90 μL/well PBMC cells were seeded into the plates with Multidrop (Thermo Fisher Scientific). After 24 hours of incubation in CO2 incubator, cells were centrifuged at 400×g for 5 minutes at room temperature, 80 μL supernatant each well was collected for cytokines release test with luminex assay of Human custom ProcartaPlex 5-plex kit (Thermo Fisher Scientific PPX-05). 10 μL supernatant or standards were added to a mixture of color-coded beads, 5 μL Biotinylated detection antibodies specific to the analytes of interest were added and formed an antibody-antigen sandwich. 10 μL Phycoerythrin (PE)-conjugated streptavidin is added to the plate and then read signal of each well on the Luminex 200™. The raw data was analyzed by Millipore Analyst Software and cytokine concentrations were generated accordingly. The EC50 of corresponding cytokine such as interferon-β (IFN-β) was calculated by the 4-parameter sigmoidal concentration response model fitting.

On to `Cc1cc2c(C(N)=O)nn(-c3nc(-c4c(O)c(C)nn4CCc4ccc(F)cc4)n[nH]3)c2cn1` [Example 52, 1-[3-[2-[2-(4-fluorophenyl)ethyl]-4-hydroxy-5-methyl-pyrazol-3-yl]-1H-1,2,4-triazol-5-yl]-5-methyl-pyrazolo[3,4-c]pyridine-3-carboxamide], for which the EC50 in test [1] amounted to 13 nM; in test [2] it was 18 nM.
For `Cc1cn2c(C(N)=O)nc(-c3nc(-c4c(O)c(C)nn4CCc4ccccc4)n[nH]3)c2cn1` [Example 53, 1-[3-[4-hydroxy-5-methyl-2-(2-phenylethyl)pyrazol-3-yl]-1H-1,2,4-triazol-5-yl]-6-methyl-imidazo[1,5-a]pyrazine-3-carboxamide], the EC50 was determined as 12 nM in test [1] and 26 nM in test [2].
Turning to `Cc1cc2c(C(N)=O)nn(-c3nc(-c4c(O)c(C)nn4CCc4cccc(F)c4)n[nH]3)c2cn1` [Example 55, 1-(3-(1-(3-fluorophenethyl)-4-hydroxy-3-methyl-1H-pyrazol-5-yl)-1H-1,2,4-triazol-5-yl)-5-methyl-1H-pyrazolo[3,4-c]pyridine-3-carboxamide], the results for the EC50 in test [1] and in test [2] were 13 nM and 32 nM, respectively.
Take `CCCn1nc(C)c(O)c1-c1nc(-n2nc(C(N)=O)c3cc(C)ncc32)co1` [Example 58, 1-(2-(4-hydroxy-3-methyl-1-propyl-1H-pyrazol-5-yl)oxazol-4-yl)-5-methyl-1H-pyrazolo[3,4-c]pyridine-3-carboxamide]: the EC50 was 6 nM in test [1] and 17 nM in test [2].
As to `CCCCn1nc(C)c(O)c1-c1nc(-n2nc(C(N)=O)c3cc(C)ncc32)co1` [Example 59, 1-(2-(1-butyl-4-hydroxy-3-methyl-1H-pyrazol-5-yl)oxazol-4-yl)-5-methyl-1H-pyrazolo[3,4-c]pyridine-3-carboxamide], the EC50 in test [1] was determined as 10 nM; in test [2] it was 7 nM.
On to `COCc1ccc(CCn2nc(C)c(O)c2-c2n[nH]c(-n3nc(C(N)=O)c4cc(C)ncc43)n2)cc1` [Example 64, 1-[3-[4-hydroxy-2-[2-[4-(methoxymethyl)phenyl]ethyl]-5-methyl-pyrazol-3-yl]-11H-1,2,4-triazol-5-yl]-5-methyl-pyrazolo[3,4-c]pyridine-3-carboxamide], for which the EC50 amounted to 13 nM in test [1] and 35 nM in test [2].
With `Cc1cc2c(C(N)=O)nn(-c3coc(-c4c(O)c(C)nn4CCC(F)F)n3)c2cn1` [Example 67, 1-(2-(1-(3,3-difluoropropyl)-4-hydroxy-3-methyl-1H-pyrazol-5-yl)oxazol-4-yl)-5-methyl-1H-pyrazolo[3,4-c]pyridine-3-carboxamide], the results for the EC50 in test [1] and in test [2] were 18 nM and 24 nM, respectively.
On to `COc1ccc(CCn2nc(C)c(O)c2-c2n[nH]c(-c3nc(C(N)=O)n4cc(C)ncc34)n2)cc1` [Example 70, 1-[3-[4-hydroxy-2-[2-(4-methoxyphenyl)ethyl]-5-methyl-pyrazol-3-yl]-1H-1,2,4-triazol-5-yl]-6-methyl-imidazo[1,5-a]pyrazine-3-carboxamide], for which the EC50 in test [1] worked out at 6 nM; in test [2], 10 nM.
For `CCCCn1nc(C)c(O)c1-c1n[nH]c(-c2c(F)c(C(N)=O)n3cc(C)ncc23)n1` [Example 76, 8-[3-(2-butyl-4-hydroxy-5-methyl-pyrazol-3-yl)-1H-1,2,4-triazol-5-yl]-7-fluoro-3-methyl-pyrrolo[1,2-a]pyrazine-6-carboxamide], the EC50 in test [1] amounted to 15 nM; in test [2] it was 14 nM.
Regarding `CCCCn1nc(C)c(O)c1-c1n[nH]c(-c2nc(C(N)=O)n3cc(C)ncc23)n1` [Example 77, 1-[3-(2-butyl-4-hydroxy-5-methyl-pyrazol-3-yl)-1H-1,2,4-triazol-5-yl]-6-methyl-imidazo[1,5-a]pyrazine-3-carboxamide], the EC50 is 17 nM in test [1] and 20 nM in test [2].
`CCCn1nc(C)c(O)c1-c1n[nH]c(-c2nc(C(N)=O)n3cc(C)ncc23)n1` [Example 80, 1-[3-(4-hydroxy-5-methyl-2-propyl-pyrazol-3-yl)-1H-1,2,4-triazol-5-yl]-6-methyl-imidazo[1,5-a]pyrazine-3-carboxamide]: the EC50 in test [1] was 20 nM; in test [2], 42 nM.
For `Cc1nn(CCc2ccccc2)c(-c2n[nH]c(-c3nc(C(N)=O)cc4c3cnn4C)n2)c1O` [Example 82, 4-(5-(4-hydroxy-3-methyl-1-phenethyl-1H-pyrazol-5-yl)-2H-1,2,4-triazol-3-yl)-1-methyl-1H-pyrazolo[4,3-c]pyridine-6-carboxamide], the EC50 is 8 nM in test [1] and 29 nM in test [2].
For `CCCn1nc(C)c(O)c1-c1nc(-n2nc(C(N)=O)c3cc(C)ncc32)c(CO)o1` [Example 83, 1-[5-(hydroxymethyl)-2-(4-hydroxy-5-methyl-2-propyl-pyrazol-3-yl)oxazol-4-yl]-5-methyl-pyrazolo[3,4-c]pyridine-3-carboxamide] the same measures were 22 nM and 23 nM.
Take `CCCn1nc(C)c(O)c1-c1nc(-n2nc(C(N)=O)c3cc(C)ncc32)n(C)n1` [Example 84, 1-[5-(4-hydroxy-5-methyl-2-propyl-pyrazol-3-yl)-2-methyl-1,2,4-triazol-3-yl]-5-methyl-pyrazolo[3,4-c]pyridine-3-carboxamide]: the EC50 in test [1] amounted to 34 nM; in test [2], 18 nM.
For the compound `CCCCn1nc(C)c(O)c1-c1nc(-c2nc(C(N)=O)n3cc(C)ncc23)co1` [Example 86, 1-[2-(2-butyl-4-hydroxy-5-methyl-pyrazol-3-yl)oxazol-4-yl]-6-methyl-imidazo[1,5-a]pyrazine-3-carboxamide], the values for the EC50 in test [1] and in test [2] were 16 nM and 30 nM, respectively.
With `CCCn1nc(C)c(O)c1-c1n[nH]c(-c2cc(C(N)=O)n3cc(C)ncc23)n1` [Example 91, 8-[3-(4-hydroxy-5-methyl-2-propyl-pyrazol-3-yl)-1H-1,2,4-triazol-5-yl]-3-methyl-pyrrolo[1,2-a]pyrazine-6-carboxamide], the EC50 in test [1] is 16 nM; in test [2] it was 38 nM.
`CCCn1nc(C)c(O)c1-c1nc(-c2c(F)c(C(N)=O)n3cc(C)ncc23)co1` [Example 93, 7-fluoro-8-[2-(4-hydroxy-5-methyl-2-propyl-pyrazol-3-yl)oxazol-4-yl]-3-methyl-pyrrolo[1,2-a]pyrazine-6-carboxamide]: the EC50 turned out to be 6 nM in test [1] and 9 nM in test [2].
Consider `CCCn1nc(C)c(O)c1-c1nc(-c2cc(C(N)=O)n3cc(C)ncc23)co1` [Example 94, 8-[2-(4-hydroxy-5-methyl-2-propyl-pyrazol-3-yl)oxazol-4-yl]-3-methyl-pyrrolo[1,2-a]pyrazine-6-carboxamide], for which the figures for the EC50 in test [1] and in test [2] were 15 nM and 6 nM, respectively.

The values above are taken from US20250074913A1, “PYRAZOLE DERIVATIVES AS STING AGONISTS” (Hoffmann-La Roche Inc., priority 2022, published 2025).
